Assay [1] concerns the target FcRn. The experiment in a line: KD [nM]. From the text: Errors are standard errors from fitting using FortéBio data analysis software 9.1. Fitting quality is characterized by R^2. Data is derived from BLI sensorgrams represented in FIG. 22 and FIG. 23.
Assay [2] relates to HER2 positive (SKBR-3, HCC-1954) and HER2 negative (MDA-MB-468) cells. Description: Cellular binding analysis by flow cytometry. As to conditions: 100 nM, 60 min, 4° C. The assay is classed as cell-based, human. As to the method: Relative order of fluorescence intensity of distinct variants on HER2 positive cells correspond to their HER2 binding affinity. Cells were incubated with 100 nM of Fcab/antibody for 60 min at 4° C., washed twice with PBS-1% BSA, incubated for 30 min with 500 nM of AF488-labeled detection antibody (Jackson ImmunoResearch) at 4° C. in darkness, washed twice with PBS-1% BSA, and finally fluorescence intensity was measured applying an Attune NxT flow cytometer (Invitrogen™).
(Flow cytometry measures light scatter and fluorescence of single cells or particles in a stream.)

As for “huFc: native human Fc-based negative control [listing 1 of 2 here]”, the Kd in assay [1] was determined as 524 ± 13 nM.
Regarding “huFc: native human Fc-based negative control [listing 2 of 2 here]”, in assay [2], the “cellular binding to HCC-1954 cells (in words)” value was “binds only slightly”.

One may read the Kd as the free concentration of one partner at which half of the binding sites on the other are occupied at equilibrium, for simple one-to-one binding. A higher Kd goes with a looser complex.

For the origin of these results see patent US20250281633A1, “HER2 TARGETING FC ANTIGEN BINDING FRAGMENT-DRUG CONJUGATES” (MERCK PATENT GMBH, priority 2021, published 2025).
